Experimental data taken from ChEMBL document CHEMBL4033687, “Synthesis, biological evaluation and molecular docking studies of chromone hydrazone derivatives as α-glucosidase inhibitors” (Bioorg Med Chem Lett, 2017).
Calls of active or inactive are those of the source. The rule behind the calls is not given here.

Biological target: not listed separately
Experiment: Inhibition of alpha glucosidase (unknown origin) using p-nitrophenyl alpha-D-glucopyranoside as substrate pretreated for 15 mins followed by substrate addition after 30 mins by spectrophotometric method
Parameters: species or system Homo sapiens

SMILES	IC50 [µM]
O=C(N/N=C/c1coc2ccccc2c1=O)c1ccccc1	> 100
O=c1c(/C=N/Nc2cccc(Cl)c2)coc2ccccc12	> 100
CCOC(=O)N/N=C/c1coc2ccccc2c1=O	> 100
Nc1ccc(C(=O)N/N=C/c2coc3ccccc3c2=O)cc1	96.9
O=c1c(/C=N/Nc2cccc(Cl)c2)coc2cc(O)ccc12	96.7
Cc1ccc(S(=O)(=O)N/N=C/c2coc3cc(O)ccc3c2=O)cc1	> 100
O=C(N/N=C/c1coc2ccccc2c1=O)c1cccs1	> 100

More lines, in order of falling IC50, values ahead:

IC50 [µM]	SMILES
95.4	CCOC(=O)N/N=C/c1coc2cc(O)ccc2c1=O
86.3	O=C(N/N=C/c1coc2cc(O)ccc2c1=O)c1ccc(O)cc1
60.8	O=C(N/N=C/c1coc2cc(O)ccc2c1=O)c1cccs1
45.7	O=C(N/N=C/c1coc2cc(O)ccc2c1=O)c1ccccc1
39.8	O=C(N/N=C/c1coc2ccccc2c1=O)c1ccc(O)cc1
30.8	Nc1ccc(C(=O)N/N=C/c2coc3cc(O)ccc3c2=O)cc1
26.7	O=c1c(/C=N/Nc2ccccc2)coc2ccccc12
25.2	NS(=O)(=O)c1ccc(N/N=C/c2coc3cc(O)ccc3c2=O)cc1
20.1	NS(=O)(=O)c1ccc(N/N=C/c2coc3ccccc3c2=O)cc1

Species on record: Homo sapiens
Experiment: Non-competitive inhibition of alpha glucosidase (unknown origin) at 10 to 30 uM using p-nitrophenyl alpha-D-glucopyranoside as substrate by line-weaver burk plot method

inhibition	SMILES
Active	NS(=O)(=O)c1ccc(N/N=C/c2coc3ccccc3c2=O)cc1
